In patent US6818215B2, “Antibodies to senescent cell-derived inhibiters of DNA synthesis” (priority 1991, dated 2004):

Columns and labels:
[1] = test system: neonatal foreskin cell line (CSC303); test: Transient transfection of SDI-1, inhibition of DNA synthesis; format: cell-based, human
Description: (§1) This provides further evidence that SDI-1 behaves like the inhibitor previously detected in senescent cells.

WI38 immortal cell line = test: as above; format: cell-based, human
Description: as §1

HeLa cells = test: as above; format: cell-based, human
Description: as §1

[2] = test system: hamster dihydrofolate reductase (DHFR) promoter; test: CAT reporter transcription assay, DHFR-CAT; format: cell-based
Protocol: (§2) The effect of the human SDI-1 on transcription driven by two E2F-responsive promoters was determined. Proliferating A31 cells were transfected with an SDI-1 expression vector in which the SDI-1 cDNA was driven by the strong constitutive cytomegalovirus early promoter (CMV) together with a reporter vector in which the chloramphenicol acetyltransferase (CAT) gene was driven by either the hamster dihydrofolate reductase (DHFR) promoter or the human cdc2 promoter (cdc2-CAT). A31 cells are Balb/c murine 3T3 fibroblasts whose origin and growth properties have been described (Lu, K. et al., Molec. Cell. Biol. 9:3411-3417 (1989); Dimri, G. P et al., J. Biol. Chem. 269:16180-16186 (1994), herein incorporated by reference). Cells were transfected with 2 μg of expression vectors, reporters vectors (for transactivation) and the CMV-β-gal identification/normalization vector using Lipofectamine (Gibco-BRL), as described by Dimri, G. P et al. (J. Biol. Chem. 269:16180-16186 (1994), herein incorporated by reference), The vector backbone was added to the mixture as needed to equalize the amount of transfected DNA. Seventy-two hours later, the cells were lysed and assayed for chloramphenicol acetyl transferase (CAT) and β-galactosidase activity. Both DHFR and cdc2 were expressed by proliferating cells, largely due to E2F-mediated transcription that is dependent on E2F binding sites in the 5′ regulatory regions of these genes (Slansky, J. E. et al., Molec. Cell. Biol. 13:1610-1618 (1993); Dalton, S., EMBO J. 11:1797-1804 (1992)).
The SDI-1 expression vector, CMV-SDI-1, but not the control vector, suppressed CAT activity driven by either the DHFR or cdc2 promoter (Table 16). CMV-SDI-1 was maximally inhibitory at above 2 μg of DNA under the assay conditions used. CAT activity in Table 16 is reported in counts per minute, normalized to the β-galactosidase activity. At this concentration, CMV-SDI-1 inhibited the DHFR promoter, which contains two strong E2F binding sites (Slansky, J. E. et al., Molec. Cell. Biol. 13:1610-1618 (1993)), somewhat more strongly than the cdc2 promoter, which contains a single E2F binding site (Dalton, S., EMBO J. 11:1797-1804 (1992)) (50-70% inhibition vs 40-50% inhibition). This difference in sensitivity is consistent with the finding that the DHFR promoter is somewhat more sensitive than the cdc2 promoter to stimulation by E2F1, a component of E2F (Dimri, G. P et al., J. Biol. Chem. 269:16180-16186 (1994)). At the concentrations used here, CMV-SDI-1 inhibited DHFR-CAT and cdc2-CAT expression to approximately the same extent that it inhibited DNA replication.

[3] = test system: E2F/p107/cdk/cyclin complexes; test: Effect of recombinant SDI-1 on DNA-protein complexes at an E2F binding site in nuclear extracts; format: biochemical; conditions: extracts from cells in late G1
Description: E2F binding sites are occupied by protein complexes, whose composition—at least by in vitro analyses—depend on the cellular growth state and stage of the cell cycle (Chellappan, S. P. et al., Cell 65:1053-1061 (1991); Nevins, J. R., Science 258:424-429 (1992); Farnham, P. J. et al., Biochim. Biophys. Acta 1155:125-131 (1993)). To determine which if any of these complexes might be a target for SDI-1, the effect of recombinant SDI-1 protein on DNA-protein complexes that associate with an E2F binding site in vitro was determined
E2F-1 is induced a few hours prior to S phase (Shan, B. et al., Molec. Cell. Biol. 12:5620-5631 (1992); Slansky, J. E. et al., Molec. Cell. Biol. 13:1610-1618 (1993); Dimri, G. P et al., J. Biol. Chem. 269:16180-16186 (1994)) at about which time nuclear extracts from cells in mid to late G1 contain increased levels of free E2F, E2F in association with pRb, and E2F in association with p107, cdk2 and cyclin E (mid-late G1-early S). Of the complexes present in extracts from cells in late G1, only the E2F/p107/cdk/cyclin complexes were disrupted by recombinant SDI-1.

SV 40 early promoter = test: CAT reporter transcription assay, SV-CAT; format: cell-based
Protocol: as §2
(§3) In sharp contrast to the response of the DHFR and cdc2 promoters, CMV-SDI-1 had little or no effect on reporter activity driven by either the SV 40 early promoter (SV-CAT or the c-fos promoter (fos-CAT) (Table 16). Neither the SV40 early genes nor c-fos has been reported to be E2F-responsive.

c-fos promoter = test: CAT reporter transcription assay, fos-CAT; format: cell-based; conditions: SDI-1 2.0 μg
Protocol: as §2, §3

C33A (HTB 31) = test: DNA synthesis inhibition by SDI-1 in pRb-deficient cells; format: cell-based, human
Protocol: Because SDI-1 inhibits the protein kinases that phosphorylate pRb, and unphosphorylated pRb is believed to negatively regulate E2F activity (Nevins, J. R., Science 258:424-429 (1992)), pRb is presumed to be a central mediator of SDI-1's effects. Since A31 cells express a normal Rb gene, the ability of SDI-1 to inhibit E2F activity, and possibly growth, in tumor cells that lack a functional pRb was tested. […] C33A cells were obtained from the American Type Culture Collection (Rockville, Md.).
By contrast, C33A and A31 cells were equally sensitive to SDI-1 inhibition of E2F activity. Thus, CMV-SDI-1 reduced DHFR-, cdc2- and SV/E2F-driven CAT activity to approximately equal extents in C33A and A31 cells. As expected CMV-SDI-1 had no effect on SV/E2Fm-driven CAT activity in either cell line.

SDI-1: senescent cell derived inhibitor of DNA synthesis, 164 amino acid protein, SEQ ID NO:2
inhibition (DNA synthesis) [1]: 40-50%
inhibition (DNA synthesis) (WI38 immortal cell line): 40-50%
inhibition (DNA synthesis) (HeLa cells): < 20%
% Activity ([2]; SDI-1 0.2 μg, A31 cells): 97%
% Inhibition ([2]; SDI-1 0.2 μg, A31 cells): 4%
Normalized CAT Activity ([2]; SDI-1 0.2 μg, A31 cells): 9155 counts per minute
% Activity ([2]; SDI-1 1.0 μg): 87%
% Inhibition ([2]; SDI-1 1.0 μg): 13%
Normalized CAT Activity ([2]; SDI-1 1.0 μg): 8196 counts per minute
% Activity ([2]; SDI-1 2.0 μg): 28%
% Inhibition ([2]; SDI-1 2.0 μg): 72%
Normalized CAT Activity ([2]; SDI-1 2.0 μg): 2613 counts per minute
% Activity ([2]; SDI-1 4.0 μg): 19%
% Inhibition ([2]; SDI-1 4.0 μg): 81%
Normalized CAT Activity ([2]; SDI-1 4.0 μg): 1757 counts per minute
effect on E2F/p107/cdk/cyclin complexes [3]: disrupted
% Activity (SV 40 early promoter; SDI-1 1.0 μg): 103%
% Inhibition (SV 40 early promoter; SDI-1 1.0 μg): 0%
Normalized CAT Activity (SV 40 early promoter; SDI-1 1.0 μg): 3743 counts per minute
% Activity (SV 40 early promoter; SDI-1 2.0 μg): 106%
% Inhibition (SV 40 early promoter; SDI-1 2.0 μg): 0%
Normalized CAT Activity (SV 40 early promoter; SDI-1 2.0 μg): 3828 counts per minute
% Activity (SV 40 early promoter; SDI-1 4.0 μg): 93%
% Inhibition (SV 40 early promoter; SDI-1 4.0 μg): 7%
Normalized CAT Activity (SV 40 early promoter; SDI-1 4.0 μg): 3366 counts per minute
% Activity (c-fos promoter): 96%
% Inhibition (c-fos promoter): 4%
Normalized CAT Activity (c-fos promoter): 16273 counts per minute
inhibition (antiproliferative effect) (C33A (HTB 31)): 40-50%
